The values below come from the supplement of paper PMC11061612.

Common to all, as to assay: Bliss excess, mean over the matrix (fraction); higher = more synergy
The test system of experiment [1] is NCI-H2795 (Mesothelioma). The method in brief:
(§1)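 Cell lines grown in DMEM/F12 or RPMI with 10% FBS were plated in 1536-well plates and held 24 hours at 37°C, 5% CO2 before 72 hours of exposure to two-drug dose matrices, with DMSO typically at 0.2%. CellTiter-Glo 2.0 luminescence gave viability, which was converted to inhibition. Vehicle wells were set to 0 and blank wells to 1. Combination Emax is the second-highest inhibition in the matrix, and Bliss excess is the observed combination effect minus the expected EA + EB − EA·EB, where EA and EB are the single-agent effects.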

Experiment [2] concerns LU-139 (Small Cell Lung Carcinoma). In a few lines:
as §1

Experiment [3] deals with Hs-633T (Other Solid Carcinomas). The method in brief:
as §1

The test system of experiment [4] is HCC-15 (Squamous Cell Lung Carcinoma). In a few lines: as §1
The subject of experiment [5] is SW1116 (Colorectal Carcinoma). In a few lines:
as §1

In experiment [6] the test system is CAL-51 (Breast Carcinoma). In a few lines:
as §1

Experiment [7] concerns UMC-11 (Other Solid Carcinomas). The method in brief:
as §1

The test system of experiment [8] is HMV-II (Melanoma). The method in brief: as §1
The test system of experiment [9] is MHH-PREB-1 (B-Cell Non-Hodgkin's Lymphoma). The method in brief: as §1
Experiment [10] concerns OC-314 (Ovarian Carcinoma). The method in brief:
as §1

The test system of experiment [11] is KYSE-410 (Esophageal Squamous Cell Carcinoma). The method in brief: as §1
Experiment [12] relates to NCI-H28 (Mesothelioma). The method in brief: as §1
The subject of experiment [13] is SW1271 (Small Cell Lung Carcinoma). In a few lines: as §1
Experiment [14] deals with HDLM-2 (Hodgkin's Lymphoma). In a few lines: as §1
In experiment [15] the test system is SK-OV-3 (Ovarian Carcinoma). The method in brief:
as §1

Experiment [16] relates to SW626 (Colorectal Carcinoma). The method in brief:
as §1

Experiment [17] concerns PCI-30 (Head and Neck Carcinoma). In a few lines:
as §1

Experiment [18] relates to TE-4 (Esophageal Squamous Cell Carcinoma). In a few lines: as §1
Experiment [19] has as its system CAL-54 (Kidney Carcinoma). In a few lines:
as §1

Experiment [20] has as its system SUP-T1 (T-Lymphoblastic Leukemia). In a few lines: as §1

Structures are written as SMILES.

As to `C=CCn1c(=O)c2cnc(Nc3ccc(N4CCN(C)CC4)cc3)nc2n1-c1cccc(C(C)(C)O)n1` [AZD1775] + O=C(c1cc(Cc2n[nH]c(=O)c3ccccc23)ccc1F)N1CCN(C(=O)C2CC2)CC1 [Olaparib] (first compound max 1 µM, partner max 10 µM), the Bliss excess was -0.0182 in experiment [1]; -0.0775 in experiment [2]; -0.0188 in [3]; -0.0004 in [4]; -0.0069 in [5]; -0.0122 in experiment [6]. The Bliss excess is 0.0135 in experiment [7]; -0.0279 in [8]; -0.0311 in experiment [9]; 0.0291 in experiment [10]; -0.04 in experiment [11]; -0.0568 in experiment [12]. The Bliss excess in experiment [13] was -0.0488; in experiment [14], -0.0536; in [15] it was -0.0465; in [16], -0.0526; in experiment [17] it was -0.0579; in [18], 0.0271. Also, the Bliss excess is -0.0341 in experiment [19] and -0.017 in experiment [20].
